Experimental data from US20250282797A1, “CRYSTALLINE FORM OF FGFR4 INHIBITOR AND USE THEREOF” (CSPC ZHONGQI PHARMACEUTICAL TECHNOLOGY (SHIJIAZHUANG) CO., …, priority 2022, published 2025).

Experiments:
[1] = Pharmacokinetic study in rats; assay type: in vivo, SD rats; settings: rat
From the text: Test Example 6: Pharmacokinetic Study of Compound of Formula B in Rats
Assay drug: the compound of formula B obtained in Preparation Example 1.
Instrument: LC-MS/MS-13 (TQ5500, Triple quad), with the operation software of Xcalibur2.0.7 (Thermo Fisher Scientific, USA); LC-10ADvp liquid chromatography system (Shimadzu, Japan); Shimadzu LC-20AD liquid chromatography pump; Shimadzu CBM-20A system controller; Shimadzu CTO-20A column oven; and SIL-20AC autosampler (Shimadzu, Japan). Chromatographic column: Agilent Zorbax SB-CN 3.5 u 100×2.1 mm; column temperature: 40° C.; mobile phase A: 0.1% aqueous formic acid solution; mobile phase B: a 0.1% solution of formic acid in acetonitrile; flow rate: 0.60 mL/min. The gradient elution was performed as follows: from 0 to 0.5 min, the mobile phase B was increased from 1% to 90%; from 0.5 to 1.2 min, 90% of the mobile phase B was maintained; starting from 1.21 min, the mobile phase B was changed back to 1%; and elution was stopped at 1.60 min.
Animals: 6 male SD rats were supplied by Shanghai Sippe-Bk Lab Animal Co., Ltd. The body weight range was 180-220 g. After purchase, the rats were bred in the laboratory of the experimental animal center for 2 days for later use. The rats were fasted 10-14 h before administration and 4 h after administration, and given ad libitum access to water during the assay. The rats were randomly divided into two groups, with 3 rats in each group. One group was intravenously injected, and the other group was intragastrically administered.
Preparation of intragastric administration solution: the compound of formula B (4.85 mg) was precisely weighed out, and a mixed aqueous solution (9.70 mL) containing 0.5% methylcellulose and 0.4% Tween-80 was added, followed by sonication at room temperature to prepare a 0.5 mg/mL suspension. Preparation of intravenous injection solution: the compound of formula B (2.79 mg) was precisely weighed out, and DMSO (21 μL), PEG200 (2.79 mL), and normal saline (4.164 mL) were added to prepare a 0.4 mg/mL solution.
Blood was collected in the intragastric administration group about 0.25 h before administration and 0.25 h, 0.5 h, 1 h, 1.5 h, 2 h, 4 h, 6 h, 8 h, 12 h, and 24 h after administration. Blood was collected in the intravenous administration group about 0.25 h before administration and 0.083 h, 0.25 h, 0.5 h, 0.75 h, 1 h, 2 h, 4 h, 8 h, 12 h, and 24 h after administration. The blood was collected from the jugular vein or other venipuncture at 0.25 mL/time point and anticoagulated with EDTA-K2 or EDTA-K3. The collected blood was placed on the ice. After the blood samples were collected, plasma was separated by centrifugation (centrifugation conditions: 6800 g/min, 6 min, 2-8° C.). The collected plasma samples were stored in a refrigerator at −80° C. for testing prior to analysis.
The compound of the formula B was accurately weighed out and formulated into different concentrations, and quantitative analysis was performed on a mass spectrometer to establish a standard curve. The concentration of the compound of formula B in the plasma described above was then measured to obtain the concentrations of the compound of formula B at different time points. All the measured data were collected and processed by relevant software, and pharmacokinetic parameters (mainly including kinetic parameters Tmax, T1/2, Cmax, AUC0-t, etc.) were calculated by adopting a statistical moment method. […]

Huh7 cell = experiment: Inhibition assay on Huh-7 tumor cell proliferation (CTG); assay type: cell-based; settings: Homo sapiens, 72 h or 168 h drug treatment
Procedure: 2. Inhibition Assay of Compound on Huh-7 Tumor Cell Proliferation
An Huh7 cell suspension was adjusted to 5×10e4 cells/mL or 2×10e4 cells/mL with DMEM+2 mM Glutamine+10% FBS medium. The cell suspension (100 μL) was added to each well of a 96-well cell culture plate at a final cell concentration of 5000 cells/well (72 h) or 2000 cells/well (168 h). The test compound was dissolved in DMSO as a 10 mmol stock solution. Compounds at 200× final concentration were prepared using the stock solution and DMSO, and 3×serial dilutions were prepared and diluted 20-fold with the medium. Finally, 10 μL of the corresponding 10-fold solution was added to each well of each cell strain, a single well for each drug concentration. […] After 72 h or 168 h of drug treatment, 100 μL of a CTG solution which was pre-melted and equilibrated to room temperature was added to each well according to CTG operation instructions, and the solution was mixed well using a microplate shaker for 2 min, left to stand at room temperature for 10 min, and measured for chemiluminescence signal values using an EnSpire plate reader. The cell survival rate was calculated using the following formula: (Vsample−Vblank)/(Vvehicle control−Vblank)×100%, wherein Vsample was the reading of the drug treatment group, Vvehicle control was the average value of the solvent control group, and Vblank was the average value of the blank control well. […]

FGFR4 = FGFR4 (Homo sapiens, UniProt P22455); experiment: FGFR4 kinase activity inhibition assay (Caliper mobility shift); assay type: biochemical
Procedure: 1. FGFR4 Kinase Activity Inhibition Assay
The FGFR4 protein kinase activity was determined by using the Caliper mobility shift assay technology. The compound was dissolved in DMSO and then diluted with a kinase buffer, and 5 μL of the compound (10% DMSO) at a 5-fold final reaction concentration was added to a 384-well plate. 10 μL of a 2.5-fold enzyme (FGFR4) solution was added, and then the mixture was incubated at room temperature for 10 min. 10 μL of a 2.5-fold substrate (FAM-labeled peptide and ATP) solution was added. The mixture was incubated at 28° C. for 30-60 min, and then 25 μL of a terminating solution was added to terminate the reaction. Conversion rate data were read on Caliper EZ Reader II (Caliper Life Sciences). The conversion rate was converted into inhibition data date (% inhibition rate=(max−sample conversion rate)/(max−min)×100), wherein max referred to the conversion rate of the DMSO control, and min referred to the conversion rate of the enzyme-free control. The concentration and inhibition rate of the compound were used as the abscissa and ordinate to plot the curve, and the XLFit Excel Add-in version 4.3.1 software was used to fit the curve and calculate the IC50 value.

[2] = male, SD, plasma, iv, intravenously injected, 2.0 mg/kg
[3] = male, SD, plasma, po, intragastrically administered, 5 mg/kg

Sequence of FGFR4 (P22455 22-802): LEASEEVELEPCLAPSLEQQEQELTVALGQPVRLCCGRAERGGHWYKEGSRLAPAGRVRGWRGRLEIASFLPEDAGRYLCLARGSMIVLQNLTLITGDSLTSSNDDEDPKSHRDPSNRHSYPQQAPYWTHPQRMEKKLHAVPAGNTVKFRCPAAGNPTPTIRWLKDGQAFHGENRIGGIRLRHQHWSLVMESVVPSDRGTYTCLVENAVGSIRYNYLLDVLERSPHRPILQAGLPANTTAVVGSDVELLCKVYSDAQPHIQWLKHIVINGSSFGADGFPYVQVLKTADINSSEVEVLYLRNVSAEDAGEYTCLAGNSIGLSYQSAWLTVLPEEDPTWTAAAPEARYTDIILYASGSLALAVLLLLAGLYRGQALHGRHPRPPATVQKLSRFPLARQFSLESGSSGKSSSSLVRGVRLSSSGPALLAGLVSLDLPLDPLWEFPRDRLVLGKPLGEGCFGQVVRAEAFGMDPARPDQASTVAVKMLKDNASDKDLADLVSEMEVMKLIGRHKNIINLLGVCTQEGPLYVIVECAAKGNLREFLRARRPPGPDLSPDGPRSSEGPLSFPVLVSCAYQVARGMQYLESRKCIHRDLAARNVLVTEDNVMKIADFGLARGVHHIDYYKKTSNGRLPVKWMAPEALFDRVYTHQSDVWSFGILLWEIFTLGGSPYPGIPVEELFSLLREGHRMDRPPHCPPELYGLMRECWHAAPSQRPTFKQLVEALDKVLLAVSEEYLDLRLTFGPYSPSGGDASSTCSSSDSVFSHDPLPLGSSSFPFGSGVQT

AUC(0-t) [1, 2]: 3980 ng·h/mL
clearance [1, 2]: 8.63 mL/min/kg
half-life [1, 2]: 1.88 h
bioavailability ([1]; male, SD, plasma, oral, intragastric 5 mg/kg vs intravenous 2.0 mg/kg, read-out: absolute bioavailability): 48.6%
AUC(0-t) [1, 3]: 4840 ng·h/mL
Cmax [1, 3]: 1220 ng/mL
half-life [1, 3]: 1.95 h
Tmax ([1]; male, SD, plasma, po, intragastrically administered, 5 mg/kg, read-out: time at which the plasma concentration reached the peak value (Tmax)): 2.67 h
volume distribution ([1]; intravenously injected, 2.0 mg/kg): 0.883 L/kg
IC50 (Huh7 cell): < 10 nM
IC50 (FGFR4): < 5 nM
SMILES: N#Cc1cnc(NC(=O)N2CCCc3cc(CN4CCN5CCC[C@H]5C4=O)c(C=O)nc32)cc1NC1CC1 [compound of formula B]
